Calls of active or inactive are those of the source.
Key:
[1] = intracellular Trypanosoma cruzi inhibitors in host cells – cell-based, plate reader, cherry-pick samples, set 3, dose response (AID 651818); type: functional;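 further: compounds incubated with infected cells for about four days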
[2] = P. falciparum Dd2 growth inhibitors, dose response, SYBR Green, cherry-picked samples (AID 1159567); type: functional, cell-based

For `C[C@H]1CN([C@@H](C)CO)C(=O)Cc2cc(N(C)C)ccc2O[C@@H]1CN(C)Cc1ccc(Cl)c(Cl)c1`, the AC50 [1] was 2.09 µM (active).
For `Cc1ccc(S(=O)(=O)Nc2ccc3c(c2)C(=O)N([C@@H](C)CO)C[C@H](C)[C@@H](CN(C)Cc2ccc(-c4ccccc4)cc2)O3)cc1`, the AC50 [1] was 3.88 µM (active).
In the case of `C[C@@H]1CN([C@@H](C)CO)C(=O)c2cccc(NC(=O)Nc3ccc4c(c3)OCO4)c2O[C@H]1CN(C)Cc1ccc(Cl)c(Cl)c1`, the AC50 [1] is reported as 2.22 µM (active).
For `C[C@H]1CN([C@@H](C)CO)C(=O)Cc2cc(NC(=O)Nc3ccc4c(c3)OCO4)ccc2O[C@H]1CN(C)Cc1ccc(-c2ccccc2)cc1`, the AC50 [1] was 6.07 µM (active).
In the case of `C[C@@H]1CCCCO[C@H](CN(C)Cc2ccc(C(=O)Nc3ccccc3N)cc2)[C@@H](C)CN([C@H](C)CO)C(=O)c2cc(NS(=O)(=O)c3ccc(Cl)cc3)ccc2O1`, the AC50 [1] is reported as 1.11 µM (active).
With `C[C@@H]1CCCCO[C@@H](CN(C)CC2CCCCC2)[C@@H](C)CN([C@H](C)CO)C(=O)c2cc(NC(=O)Nc3ccc(F)cc3)ccc2O1` the AC50 [1] was 1.64 µM (active).
In the case of `CC(C)NC(=O)N(C)C[C@H]1Oc2c(NC(=O)c3cnccn3)cccc2C(=O)N([C@H](C)CO)C[C@H]1C`, the AC50 [1] is reported as 3.41 µM (active).
With `C[C@@H]1CCCCO[C@H](CN(C)C(=O)Nc2ccc(C(F)(F)F)cc2)[C@@H](C)CN([C@H](C)CO)C(=O)c2cc(NC(=O)NC3CCCCC3)ccc2O1` the AC50 [1] was 2.45 µM (active).
With `C[C@@H]1CN([C@@H](C)CO)C(=O)c2cccc(NC(=O)CCCCCC(=O)Nc3ccccc3N)c2O[C@H]1CN(C)Cc1ccc(Oc2ccccc2)cc1` the AC50 [1] was 2.21 µM (active).
For `C[C@H](CO)N1C[C@H](C)[C@@H](CN(C)Cc2ccc3c(c2)OCO3)Oc2c(NC(=O)CCCCCC(=O)Nc3ccccc3N)cccc2C1=O`, the AC50 [1] was 2.21 µM (active).
With `CC(C)C#Cc1ccc([C@@H]2[C@H](CO)N3CCCCN(C(=O)c4ccc5c(c4)OCO5)C[C@@H]23)cc1` the AC50 [2] was 5.18 µM (active).
In the case of `C[C@@H]1CN([C@H](C)CO)C(=O)c2cccc(NS(=O)(=O)c3cccs3)c2O[C@H]1CN(C)Cc1ccc(C(F)(F)F)cc1`, the AC50 [2] is reported as 7.6 µM (active).
For `COc1ccccc1-c1cccc(-c2nc(C(=O)Nc3nccs3)cc3c2[C@H](CCO)N(C(=O)CC2CC2)C3)c1`, the AC50 [2] was 4.27 µM (active).
In the case of `CC(C)(C)[S@+]([O-])N1Cc2cc(C(=O)NCCN3CCCC3)nc(-c3cccc(-c4ccc(C#N)cc4)c3)c2[C@@H]1CCO`, the AC50 [2] is reported as 6.6 µM (active).
With `CO[C@@H]1CN(C)C(=O)c2ccc(NC(=O)NC3CCCCC3)cc2OC[C@@H](C)N(CCc2ccccc2)C[C@H]1C` the AC50 [2] was 5.41 µM (active).

— ChEMBL document CHEMBL1201862, “PubChem BioAssay data set” (2004)
